{"source": "paper PMC7590151", "about": "“Chiral Cyclobutane-Containing Cell-Penetrating Peptides as Selective Vectors for Anti-Leishmania Drug Delivery Systems” (International Journal of Molecular Sciences, 2020)", "tested_on": "Leishmania donovani promastigotes", "experiment": "Viability of Leishmania donovani promastigotes (MTT reduction)", "assay_type": "cell-based", "conditions": "L. donovani promastigotes 20 × 10^6 cells/mL, 4 h, 26 °C, full range of concentrations assayed (comparison 15 vs 16 at 5, 10 and 25 μM)", "description": "The cellular viability in the presence of the peptides was assessed by the MTT reduction at both stages of the parasite after 4 h incubation (Figure 5).\nThe experiments were carried out with Leishmania donovani promastigotes (MHOM/SI/00/1S-2D strain) and Leishmania pifanoi amastigotes (MHOM/VE/60/Ltrod strain), respectively. Promastigotes were grown at 26 °C in RPMI medium supplemented with 10% of FCS, 2 mM L-glutamine, 20 U/mL unicillin 20 plus 48 µg/mL gentamicin.\nThe viability assays were carried out using the reduction of MTT as described. The parasites were aliquoted into 96-microwell plates at a final concentration of 20 × 10^6 cells/mL in HBSS supplemented with 10 mM D-glucose. The peptides were incubated for 4 h at the corresponding peptide concentration at 26 °C or 32 °C for promastigotes and axenic amastigotes, respectively. […] The resulting formazan was solubilized with […] (1% final concentration) and read at 595 nm in a Bio-Rad 640 microplate reader.\n(a) L. pifanoi axenic amastigotes. […] Axenic Leishmania parasites (20 × 10^6 cells/mL) were incubated with the peptides, and MTT reduction measured immediately after 4 h incubation. […]\nFigure 8 Viability of Leishmania donovani promastigotes treated with Dox-conjugates 15 and 16 along with Dox and Dox-TAT. Parasites were incubated with the respective reagents (20 × 10^6 cells/mL, 4 h, 26 °C), and MTT reduction measured afterwards. […]"}
{"smiles": "COc1cccc2c1C(=O)c1c(O)c3c(c(O)c1C2=O)C[C@@](O)(C(=O)CO)C[C@@H]3O[C@H]1C[C@H](N)[C@H](O)[C@H](C)O1", "note": "[doxorubicin]", "values": [{"measurement": "Toxicity towards promastigotes (in words)", "result": "did not show any toxicity"}]}
